From patent US20100113421A1, “NON-NUCLEOSIDE REVERSE TRANSCRIPTASE INHIBITORS” (priority 2006, published 2010)

Test system: HIV strain containing the Y181C mutation
Assay: Spread assay, Y181C mutant strain
Type: cell-based
Conditions: Human immunodeficiency virus 1; spread assay, 10% FBS, Y181C mutant strain; read-out: CIC95
Description: Assays for the inhibition of acute HIV-1 infection of T-lymphoid cells (alternatively referred to herein as the “spread assay”) were conducted in accordance with Vacca, J. P. et al., Proc. Natl. Acad. Sci. USA 1994, 91: 4096. The assays (using 10% FBS) tested for inhibition of wild type HIV-1 and of HIV strains containing the Y181C or K103N mutation. […] (Note that the compound of Example 6 was tested only up to a 833 nM concentration and the CIC95 value was determined to be >833 nM. The compound of Example 78 was not tested in the Y1818C assay.) The compounds of Examples 1 to 119 (including Examples 70A and 70B) had CIC95 values of less than 1000 nanomolar in the assay employing the K103N mutant strain. In an analogous assay employing a mutant strain containing both the K103N and Y181C mutations, the compounds of Examples 70A, 70B and 78-115 had CIC95 values of less than 1000 nanomolar.

Compound	IC95
Cc1c(C(=O)N(C)Cc2ccccc2Cl)[nH]c(C(N)=O)c1S(=O)(=O)c1cc(F)cc(Cl)c1 [Example 30, N-(2-chlorobenzyl)-N,3-dimethyl-4-(3-chloro-5-fluorophenylsulfonyl)-1H-pyrrole-2,5-dicarboxamide]	< 8 µM
Cc1c(C(=O)N(C)Cc2ccc(Cl)cc2F)[nH]c(C(N)=O)c1S(=O)(=O)c1cc(F)cc(Cl)c1 [Example 31, N-(4-chloro-2-fluorobenzyl)-N,3-dimethyl-4-(3-chloro-5-fluorophenylsulfonyl)-1H-pyrrole-2,5-dicarboxamide]	< 8 µM
Cc1c(C(=O)N(C)Cc2ccccc2)[nH]c(C(N)=O)c1S(=O)(=O)c1cc(Cl)cc(Cl)c1 [Example 32, N-benzyl-N,3-dimethyl-4-(3,5-dichlorophenylsulfonyl)-1H-pyrrole-2,5-dicarboxamide]	< 8 µM
Cc1c(C(=O)N(C)Cc2ccccc2F)[nH]c(C(N)=O)c1S(=O)(=O)c1cc(Cl)cc(Cl)c1 [Example 33, N-(2-fluorobenzyl)-N,3-dimethyl-4-(3,5-dichlorophenylsulfonyl)-1H-pyrrole-2,5-dicarboxamide]	< 8 µM
Cc1c(C(=O)N(C)Cc2ccccc2Cl)[nH]c(C(N)=O)c1S(=O)(=O)c1cc(Cl)cc(Cl)c1 [Example 34, N-(2-chlorobenzyl)-N,3-dimethyl-4-(3,5-dichlorophenylsulfonyl)-1H-pyrrole-2,5-dicarboxamide]	< 8 µM
Cc1c(C(=O)N(C)Cc2ccc(Cl)cc2F)[nH]c(C(N)=O)c1S(=O)(=O)c1cc(Cl)cc(Cl)c1 [Example 35, N-(4-chloro-2-fluorobenzyl)-N,3-dimethyl-4-(3,5-dichlorophenylsulfonyl)-1H-pyrrole-2,5-dicarboxamide]	< 8 µM
COc1cccc(CN(C)C(=O)c2[nH]c(C(N)=O)c(S(=O)(=O)c3ccccc3)c2C)c1 [Example 36, N-(3-methoxyobenzyl)-N,3-dimethyl-4-(phenylsulfonyl)-1H-pyrrole-2,5-dicarboxamide]	< 8 µM
Cc1c(C(=O)N(C)Cc2ccsc2)[nH]c(C(N)=O)c1S(=O)(=O)c1ccccc1 [Example 38, N,3-dimethyl-4-(phenylsulfonyl)-N-(3-thienylmethyl)-1H-pyrrole-2,5-dicarboxamide]	< 8 µM
Cc1c(C(=O)N(C)Cc2ccncc2Cl)[nH]c(C(N)=O)c1S(=O)(=O)c1ccccc1 [Example 39, N-[(3-chloro-4-pyridinyl)methyl]-N,3-dimethyl-4-(phenylsulfonyl)-1H-pyrrole-2,5-dicarboxamide]	< 8 µM
Cc1cc(C)cc(S(=O)(=O)c2c(C(N)=O)[nH]c(C(=O)N(C)Cc3ccc4ncccc4c3)c2C)c1 [Example 40, 4-[(3,5-Dimethylphenyl)sulfonyl]-N,3-dimethyl-N-(6-quinolinylmethyl)-1H-pyrrole-2,5-dicarboxamide]	< 8 µM
Cc1c(C(=O)N(C)Cc2cc3cccnc3cc2Cl)[nH]c(C(N)=O)c1S(=O)(=O)c1ccccc1 [Example 41, N-[(7-Chloro-6-quinolinyl)methyl]-N,3-dimethyl-4-(phenylsulfonyl)-1H-pyrrole-2,5-dicarboxamide]	< 8 µM
Cc1c(C(=O)N(C)Cc2ccc3ncccc3c2Cl)[nH]c(C(N)=O)c1S(=O)(=O)c1ccccc1 [Example 42, N-[(5-Chloro-6-quinolinyl)methyl]-N,3-dimethyl-4-(phenylsulfonyl)-1H-pyrrole-2,5-dicarboxamide]	< 8 µM
Cc1c(C(=O)N(C)Cc2ccc3ncccc3c2)[nH]c(C(N)=O)c1S(=O)(=O)c1ccccc1 [Example 43]	< 8 µM
Cc1cccc(S(=O)(=O)c2c(C(N)=O)[nH]c(C(=O)N(C)Cc3ccc4ncccc4c3)c2C)c1 [Example 44]	< 8 µM
Cc1c(C(=O)N(C)Cc2ccc3ncccc3c2)[nH]c(C(N)=O)c1S(=O)(=O)c1cccc(F)c1 [Example 45]	< 8 µM
Cc1c(C(=O)N(C)Cc2ccc3ncccc3c2)[nH]c(C(N)=O)c1S(=O)(=O)c1cccc(C(F)(F)F)c1 [Example 46, N,3-dimethyl-N-(6-quinolinylmethyl)-4-{[3-(trifluoromethyl)phenyl]sulfonyl}-1H-pyrrole-2,5-dicarboxamide]	< 8 µM
Cc1cc(C)cc(S(=O)(=O)c2c(C(N)=O)[nH]c(C(=O)N(C)Cc3ccc4ncccc4c3Cl)c2C)c1 [Example 47, N-[(5-chloro-6-quinolinyl)methyl]-4-[(3,5-dimethylphenyl)sulfonyl]-N,3-dimethyl-1H-pyrrole-2,5-dicarboxamide]	< 8 µM

Compound	IC95
Cc1cc(C)cc(S(=O)(=O)c2c(C(N)=O)[nH]c(C(=O)N(C)Cc3cc4cccnc4cc3Cl)c2C)c1 [Example 48, N-[(7-chloro-6-quinolinyl)methyl]-4-[(3,5-dimethylphenyl)sulfonyl]-N,3-dimethyl-1H-pyrrole-2,5-dicarboxamide]	< 8 µM
Cc1c(C(=O)N(C)Cc2ccc3ncccc3c2Cl)[nH]c(C(N)=O)c1S(=O)(=O)c1cc(F)cc(F)c1 [Example 49, N-[(5-chloro-6-quinolinyl)methyl]-4-[(3,5-difluorophenyl)sulfonyl]-N,3-dimethyl-1H-pyrrole-2,5-dicarboxamide]	< 8 µM
Cc1c(C(=O)N(C)Cc2cc3cccnc3cc2Cl)[nH]c(C(N)=O)c1S(=O)(=O)c1cc(F)cc(F)c1 [Example 50, N-[(7-chloro-6-quinolinyl)methyl]-4-[(3,5-difluorophenyl)sulfonyl]-N,3-dimethyl-1H-pyrrole-2,5-dicarboxamide]	< 8 µM
Cc1c(C(=O)N(C)Cc2ccc3ncccc3c2)[nH]c(C(N)=O)c1S(=O)(=O)c1cc(F)cc(Cl)c1 [Example 51, 4-[(3-chloro-5-fluorophenyl)sulfonyl]-N,3-dimethyl-N-(6-quinolinylmethyl)-1H-pyrrole-2,5-dicarboxamide]	< 8 µM
Cc1c(C(=O)N(C)Cc2ccc3ncccc3c2Cl)[nH]c(C(N)=O)c1S(=O)(=O)c1cc(F)cc(Cl)c1 [Example 52, 4-[(3-chloro-5-fluorophenyl)sulfonyl]-N-[(5-chloro-6-quinolinyl)methyl]-N,3-dimethyl-1H-pyrrole-2,5-dicarboxamide]	< 8 µM
Cc1c(C(=O)N(C)Cc2cc3cccnc3cc2Cl)[nH]c(C(N)=O)c1S(=O)(=O)c1cc(F)cc(Cl)c1 [Example 53, 4-[(3-chloro-5-fluorophenyl)sulfonyl]-N-[(7-chloro-6-quinolinyl)methyl]-N,3-dimethyl-1H-pyrrole-2,5-dicarboxamide]	< 8 µM
Cc1c(C(=O)N(C)Cc2ccc3ncccc3c2)[nH]c(C(N)=O)c1S(=O)(=O)c1cc(Cl)cc(Cl)c1 [Example 54, 4-[(3,5-dichlorophenyl)sulfonyl]-N,3-dimethyl-N-(6-quinolinylmethyl)-1H-pyrrole-2,5-dicarboxamide]	< 8 µM
Cc1c(C(=O)N(C)Cc2ccc3ncccc3c2Cl)[nH]c(C(N)=O)c1S(=O)(=O)c1cc(Cl)cc(Cl)c1 [Example 55, N-[(5-chloro-6-quinolinyl)methyl]-4-[(3,5-dichlorophenyl)sulfonyl]-N,3-dimethyl-1H-pyrrole-2,5-dicarboxamide]	< 8 µM
Cc1c(C(=O)N(C)Cc2cc3cccnc3cc2Cl)[nH]c(C(N)=O)c1S(=O)(=O)c1cc(Cl)cc(Cl)c1 [Example 56, N-[(7-chloro-6-quinolinyl)methyl]-4-[(3,5-dichlorophenyl)sulfonyl]-N,3-dimethyl-1H-pyrrole-2,5-dicarboxamide]	< 8 µM
Cc1c(C(=O)N(C)Cc2ccc3ncccc3c2)[nH]c(C(N)=O)c1S(=O)(=O)c1cc(Cl)cc(C#N)c1 [Example 57]	< 8 µM
CC(C)c1c(C(=O)N(C)Cc2ccccc2)[nH]c(C(N)=O)c1S(=O)(=O)c1ccccc1 [Example 58, N-Benzyl-3-isopropyl-N-methyl-4-(phenylsulfonyl)-1H-pyrrole-2,5-dicarboxamide]	< 8 µM
CCc1c(C(=O)N(C)Cc2ccc(Cl)cc2Cl)[nH]c(C(N)=O)c1S(=O)(=O)c1ccccc1 [Example 59, N-(2,4-dichlorobenzyl)-3-ethyl-N-methyl-4-(phenylsulfonyl)-1H-pyrrole-2,5-dicarboxamide]	< 8 µM
CCc1c(C(=O)N(C)Cc2ccc3ncccc3c2)[nH]c(C(N)=O)c1S(=O)(=O)c1ccccc1 [Example 60, 3-ethyl-N-methyl-4-(phenylsulfonyl)-N-(6-quinolinylmethyl)-1H-pyrrole-2,5-dicarboxamide]	< 8 µM
CC(C)c1c(C(=O)N(C)Cc2ccccc2F)[nH]c(C(N)=O)c1S(=O)(=O)c1ccccc1 [Example 61, N-(2-fluorobenzyl)-3-isopropyl-N-methyl-4-(phenylsulfonyl)-1H-pyrrole-2,5-dicarboxamide]	< 8 µM
CC(C)c1c(C(=O)N(C)Cc2ccc(Cl)cc2F)[nH]c(C(N)=O)c1S(=O)(=O)c1ccccc1 [Example 62, N-(4-chloro-2-fluorobenzyl)-3-isopropyl-N-methyl-4-(phenylsulfonyl)-1H-pyrrole-2,5-dicarboxamide]	< 8 µM
CC(C)c1c(C(=O)N(C)Cc2ccc(Cl)cc2Cl)[nH]c(C(N)=O)c1S(=O)(=O)c1ccccc1 [Example 63, N-(2,4-dichlorobenzyl)-3-isopropyl-N-methyl-4-(phenylsulfonyl)-1H-pyrrole-2,5-dicarboxamide]	< 8 µM
CC(C)c1c(C(=O)N(C)Cc2ccc3ncccc3c2)[nH]c(C(N)=O)c1S(=O)(=O)c1ccccc1 [Example 64, 3-isopropyl-N-methyl-4-(phenylsulfonyl)-N-(6-quinolinylmethyl)-1H-pyrrole-2,5-dicarboxamide]	< 8 µM
